Experimental data reported in US10035791B2, “Bicyclic compound and pharmaceutical composition thereof for treating stroke and use thereof” (China Medical University, priority 2016, dated 2018).

Tests used:
[1] = test system: NSC in the brain of the ischemic rats; assay: Proliferation marker expressions (BrdU, ki-67) in the SVZ and DG of the ischemic rats; assay type: in vivo, Sprague-Dawley (SD) rats
Text: (§1) The ischemic rats are induced by an ischemia-reperfusion model to simulate transient focal cerebral ischemia in rats. Test animals are male Sprague-Dawley (SD) rats weighing 250-300 g. The rats are anesthetized with chloral hydrate (0.4 g/kg IP) and subjected to cerebral ischemia. The ischemia-reperfusion model is induced by ligations of bilateral common carotid arteries (CCAs) and a right middle cerebral artery (MCA). The bilateral CCAs are clamped with non-traumatic arterial clips, and the right MCA is ligated with an 10-0 nylon suture. After 90 minutes ischemia, the suture on the MCA and the arterial clips on CCAs are removed to allow reperfusion. Core body temperature is monitored with a thermistor probe (Hewlett-Packard Model 21090A probe, Hewlett-Packard Company, Andover, Mass.), and maintained at 37° C. with a heating pad during anesthesia. After recovery from anesthesia, rat body temperature is maintained at 37° C. with a heat lamp.
The ischemic rats treated with different dosages of the Compound 1 (0.1 mg/kg, 1 mg/kg and 10 mg/kg) and the ischemic rats reduced the Bmi-1 expressions or the HIF-1α expressions and then treated with 1 mg/kg of the Compound 1 are decapitated, and the brain tissues thereof are performed the immunofluorescence staining to detect the proliferation marker expressions (BrdU and ki-67) in the brains of the ischemic rats.

Bmi-1 [2] = assay: Bmi-1 expressions of the NSCs in the SVZ and the DG of the ischemic rats, immunofluorescence staining; assay type: in vivo, Sprague-Dawley (SD) rats
HIF-1α = HIF-1α expressions of the NSCs, Western blot; assay type: cell-based, mice
Description: To prepare the NSCs, after removal of meninges, subventricular zones (SVZ) of lateral ventricles from adult mice brain (4 week-of-age) are aseptically isolated and dissociated as previously described (J Cell Sci 2006; 119, 4467-4474). All steps are operated under sterile conditions. Then, neurosphere culture are prepared in neurobasal (NB) medium (Gibco BRL) supplemented with 2% of B27 (Gibco BRL), 2 mM of L-glutamine (PAN Biotech), 100 U/ml of penicillin/0.1 […] of streptomycin (Gibco BRL). For maintenance and expansion of the cultures, the NB/B27 is further supplemented with 2 μg/mL of heparin (Sigma), 20 ng/mL of FGF-2 (R&D Systems) and 20 ng/mL of EGF (R&D Systems). Neurosphere cultures are maintained at 37° C. in a humidified incubator with 5% CO2. For clonal/low density cultures, primary neurospheres grown at high density are dissociated into a single cell suspension and reseeded into 96-well plates at 100 cells per ml of media and the number of newly formed neurospheres is counted after 7 days. In addition, the Bmi-1 expressions, SOX2 expressions, Nestin expressions, Musashi-1 expressions, BrdU expressions and ki-67 expressions of the newly formed neurospheres are determined by the immunofluorescence staining. […]
The NSCs are exposed to the various dosages of the Compound 1 (0.1 μM, 1 μM, 10 μM and 100 μM) and cultured in the neurosphere culture. The HIF-1α expressions and the Bmi-1 expressions of the NSCs are detected by the Western blot analysis. […]
In another example, the HIF-1α expressions of the NSCs are inhibited and then 1 μM of the Compound 1 is added into the medium of the NSCs. The HIF-1α expression and the Bmi-1 expressions of the NSCs are detected by the Western blot analysis. […]
In still another example, the NSCs are exposed to 1 μM of the Compound 1 and further cultured for various lengths of time (0.5 hour, 1 hour, 4 hours, 8 hours, 16 hours and 24 hours). The HIF-1α expressions and the Bmi-1 expressions of the NSCs are detected by the Western blot analysis. […]

Bmi-1 [3] = assay: Bmi-1 expressions in the brains of the ischemic rats, Western blot; assay type: in vivo, Sprague-Dawley (SD) rats
Text: as §1
The ischemia-reperfusion model is established as described above. The ischemic rats are injected intraperitonealy with different dosages of the Compound 1 (0.1 mg/kg, 1 mg/kg and 10 mg/kg) at 4 hours after MCA ligation for three consecutive days. Sham rats undergo same protocol with the exception of the ligation of the bilateral CCAs and the right MCA. The rats only injected a vehicle are used as the control. The ischemic rats are decapitated at 4 hours, 16 hours, 24 hours, 36 hours and 72 hours after the Compound 1 injection. The Bmi-1 expressions and the HIF-1α expressions of the ischemic rats are detected by the Western blot analysis.
The ischemic rats are further treated with 100 mg/kg of the 2-ME2 or stereotaxic injected with the LV-Bmi-1-sh or the LV-control-sh to inhibit the HIF-1α expressions and the Bmi-1 expressions, and then the ischemic rats are treated with 1 mg/kg of the Compound 1. The effect of the administration of the Compound 1 on the Bmi-1 expressions in the brains of the ischemic rats which are reduced the Bmi-1 expressions or the HIF-1α expressions are detected by the Western blot analysis.

[4] = 2-ME2 treatment plus 1 mg/kg Compound 1

| SMILES | numbers of BrdU+ cells in the SVZ and the DG of the brains of the ischemic rats ([1]; 0.1, 1, 10 mg/kg vs control, in particular 1 mg/kg, FIGS. 15A to 15D) | numbers of ki-67+ cells in the SVZ and the DG of the brains of the ischemic rats ([1]; 0.1, 1, 10 mg/kg vs control, in particular 1 mg/kg, FIGS. 15E to 15H) | number of Bmi-1+Nestin+ NSCs in the SVZ and the DG (Bmi-1 [2]; 0.1, 1, 10 mg/kg vs control, in particular 1 mg/kg, FIGS. 14A to 14D) | exposure time at which the NSCs express the most HIF-1α (HIF-1α; 1 μM, 0.5 to 24 hours tested, FIG. 10C) [h] | HIF-1α expressions of the NSCs (HIF-1α; 0.1, 1, 10, 100 μM, normoxia (21% O2), in particular 1 μM, FIG. 10A) | treatment time with the highest Bmi-1 expression (Bmi-1 [3]; 1 mg/kg, 4 to 72 hours after injection, FIG. 13A) [h] | Bmi-1 expressions in the brains of the ischemic rats (Bmi-1 [3]; 0.1, 1, 10 mg/kg intraperitoneal, vs control and sham rats, FIGS. 13A to 13C) | dosage with the highest Bmi-1 expression (Bmi-1 [3]; 0.1, 1, 10 mg/kg tested, 36 hours, FIG. 13B) [mg/kg] | Compound 1 increased numbers of the BrdU+ cells in the SVZ and the DG [1, 4] | Compound 1 increased numbers of the ki-67+ cells in the SVZ and the DG [1, 4] | Compound-1-induced enhancement of Bmi-1+Nestin+ NSCs numbers (Bmi-1 [2]; 100 mg/kg 2-ME2 intraperitoneal plus 1 mg/kg Compound 1) | enhancement of the HIF-1α expressions induced by the Compound 1 in NSCs (HIF-1α; 1 μM 2-ME2 for 16 hours, then 1 μM Compound 1, FIG. 10B) | increased Bmi-1 expressions by the Compound 1 treatment in brains of ischemic rats (Bmi-1 [3]; 100 mg/kg 2-ME2 plus 1 mg/kg Compound 1, FIG. 13C) |
| --- | --- | --- | --- | --- | --- | --- | --- | --- | --- | --- | --- | --- | --- |
| COC(=O)C1=CO[C@@H](O)[C@@H]2C(COC(=O)[C@@H](N)Cc3ccccc3)=CC[C@H]12 [Compound 1] | significant enhancement | significant enhancement | significantly increases | 0.5 | increased | 36 | significantly increases | 1 |  |  |  |  |  |
| COc1cc2c(cc1O)CC[C@@H]1[C@@H]2CC[C@]2(C)[C@@H](O)CC[C@@H]12 [Compound 2-ME2, 2-Methoxyestradiol, reference compound] |  |  |  |  |  |  |  |  | abolishes | abolishes | inhibits | abolished | inhibited |
